According to patent EP0084756A1, “Trisubstituted oxaza compounds” (CIBA-GEIGY AG, priority 1982, dated 1983):
In brackets after ≈: the same amount, converted by molar mass.

System: mit Crotonöl induzierten Rattenohroedems
Experiment: Croton oil-induced rat ear oedema, method of Tonelli and Thibault, local application
Type: in vivo, Normalratte
Details: inhibition of croton oil-induced rat ear oedema in the normal rat
Procedure: Diese Eigenschaft lässt sich beispielsweise nach der von G. Tonelli, L. Thibault, Endocrinology 77, 625 (1965) entwickelten Methode durch Hemmung des mit Crotonöl induzierten Rattenohroedems bei der Normalratte im Dosisbereich von etwa 1 bis etwa 100 mg/ml nachweisen.

CCOC(=O)Cc1nc(-c2ccccc2)c(-c2cccnc2)[nH]1 [2-[4-Phenyl-5-(3-pyridyl)-imidazol-2-yl]-essigsäureethylester]
ED50-Wert: 17 mg/mL (≈ 55.3 mM)
